Experimental data published in ChEMBL document CHEMBL6114933, “Discovery of 3-acyl-2-anilino-1,4-dihydroquinolin-4-one derivatives as potential inhibitors of methicillin-resistant Staphylococcus aureus” (Bioorg Med Chem Lett, 2025).
In brackets after ≈: the same amount, converted by molar mass.

How the values were obtained:
Staphylococcus aureus [1] = assay: Antibacterial activity against drug-resistant Staphylococcus aureus USA300 JE2 assessed as inhibition of bacterial growth; format: functional
Staphylococcus aureus [2] = assay: Antibacterial activity against drug-sensitive Staphylococcus aureus ATCC25923 assessed as inhibition of bacterial growth; format: functional
Staphylococcus aureus [3] = assay: Ex vivo antibacterial activity against methicillin-resistant Staphylococcus aureus assessed as inhibition of bacterial growth by cell infection model; format: functional
[4] = Cytotoxicity against human HepG2 cells; format: toxicity, cell-based
[5] = Metabolic stability in human liver microsomes assessed as parent compound remaining measured after 30 mins; format: ADME, Microsome; details: read-out: Stability
[6] = Metabolic stability in rat liver microsomes assessed as parent compound remaining measured after 30 mins; format: ADME, Microsome; details: read-out: Stability
[7] = Metabolic stability in mouse liver microsomes parent compound remaining measured after 30 mins; format: ADME, Microsome; details: read-out: Stability
[8] = Cytotoxicity against African green monkey Vero cells; format: toxicity, cell-based, Chlorocebus sabaeus
[9] = Cytotoxicity against HFL1 cells; format: toxicity, cell-based; details: human
[10] = Cytotoxicity against mouse L929 cells; format: toxicity, cell-based
[11] = Cytotoxicity against CHO-K1 cells; format: toxicity, cell-based, Cricetulus griseus; details: Chinese hamster
[12] = Cytotoxicity against mouse NIH3T3 cells; format: toxicity, cell-based
[13] = Half life in rat at 2 mg/kg, iv; format: ADME, organism-based; details: in vivo
[14] = AUC(0 to 24 hrs) in rat at 2 mg/kg, iv; format: ADME, organism-based; details: in vivo
[15] = AUC (0 to infinity) in rat at 2 mg/kg, iv; format: ADME, organism-based; details: in vivo
[16] = Clearance in rat at 2 mg/kg, iv; format: ADME, organism-based; details: in vivo
[17] = Oral bioavailability in rat at 5 mg/kg; format: ADME, organism-based; details: in vivo
[18] = target: Voltage-gated inwardly rectifying potassium channel KCNH2 (Homo sapiens, UniProt Q12809); assay: Inhibition of hERG by binding assay; format: toxicity
[19] = Cmax in rat at 5 mg/kg, po or 2 mg/kg, iv; format: ADME, organism-based; details: in vivo

Voltage-gated inwardly rectifying potassium channel KCNH2, sequence (Q12809 whole entry): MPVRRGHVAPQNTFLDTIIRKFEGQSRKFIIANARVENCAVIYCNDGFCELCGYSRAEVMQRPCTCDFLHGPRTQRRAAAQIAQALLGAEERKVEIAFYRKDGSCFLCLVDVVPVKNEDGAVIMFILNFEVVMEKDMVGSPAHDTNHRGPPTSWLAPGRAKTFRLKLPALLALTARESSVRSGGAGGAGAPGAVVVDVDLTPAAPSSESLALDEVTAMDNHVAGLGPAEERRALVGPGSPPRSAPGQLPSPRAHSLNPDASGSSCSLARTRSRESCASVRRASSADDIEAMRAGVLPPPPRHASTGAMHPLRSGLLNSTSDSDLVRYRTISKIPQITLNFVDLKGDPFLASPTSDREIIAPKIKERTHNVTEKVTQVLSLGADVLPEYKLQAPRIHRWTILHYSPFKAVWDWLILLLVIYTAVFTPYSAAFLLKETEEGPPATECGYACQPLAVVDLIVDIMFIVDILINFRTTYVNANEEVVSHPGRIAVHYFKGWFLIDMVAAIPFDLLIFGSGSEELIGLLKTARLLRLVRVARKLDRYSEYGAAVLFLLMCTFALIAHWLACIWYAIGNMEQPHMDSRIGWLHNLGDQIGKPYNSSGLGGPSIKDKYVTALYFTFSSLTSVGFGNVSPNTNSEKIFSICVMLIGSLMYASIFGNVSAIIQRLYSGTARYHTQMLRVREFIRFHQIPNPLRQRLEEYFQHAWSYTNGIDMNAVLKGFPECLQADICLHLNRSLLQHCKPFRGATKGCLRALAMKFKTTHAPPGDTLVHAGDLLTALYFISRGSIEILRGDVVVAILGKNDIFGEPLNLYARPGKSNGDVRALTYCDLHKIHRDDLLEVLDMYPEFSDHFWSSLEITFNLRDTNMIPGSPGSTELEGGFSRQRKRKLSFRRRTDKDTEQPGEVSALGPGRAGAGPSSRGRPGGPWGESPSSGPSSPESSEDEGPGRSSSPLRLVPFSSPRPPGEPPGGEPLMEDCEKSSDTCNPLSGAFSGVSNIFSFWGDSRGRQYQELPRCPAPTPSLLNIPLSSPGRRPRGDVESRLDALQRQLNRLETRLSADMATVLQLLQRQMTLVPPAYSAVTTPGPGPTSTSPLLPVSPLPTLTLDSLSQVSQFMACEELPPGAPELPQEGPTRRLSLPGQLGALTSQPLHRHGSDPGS

Structure (SMILES)	MIC50 (Staphylococcus aureus [1]) [µM]	MIC50 (Staphylococcus aureus [2]) [µM]	MIC50 (Staphylococcus aureus [3]) [µM]	other results
CC(=O)c1c(Nc2cc(F)cc(F)c2)[nH]c2c(F)cc(F)cc2c1=O	> 20	> 20	–	–
CC[C@H]1OC(=O)[C@H](C)[C@@H](O[C@H]2C[C@@](C)(OC)[C@@H](O)[C@H](C)O2)[C@H](C)[C@@H](O[C@@H]2O[C@H](C)C[C@H](N(C)C)[C@H]2O)[C@](C)(O)C[C@@H](C)C(=O)[C@H](C)[C@@H](O)[C@]1(C)O [ERYTHROMYCIN]	–	0.74 (≈ 0.543 µg/mL)	–	–
CC(=O)c1c(N2CCCCC2)[nH]c2c(F)cc(F)cc2c1=O	> 20	> 20	–	–
CC(=O)c1c(Nc2ccc(F)cc2F)[nH]c2c(F)cc(F)cc2c1=O	3.84 (≈ 1.35 µg/mL)	4.41 (≈ 1.54 µg/mL)	9.48 (≈ 3.32 µg/mL)	–
CC(=O)c1c(Nc2ccc(Cl)cc2Cl)[nH]c2c(F)cc(F)cc2c1=O	0.39 (≈ 0.149 µg/mL)	0.41 (≈ 0.157 µg/mL)	10.1 (≈ 3.88 µg/mL)	–
CC(C)C(=O)c1c(Nc2ccc(F)cc2F)[nH]c2c(Cl)cc(Cl)c(Cl)c2c1=O	0.06 (≈ 0.0267 µg/mL)	0.05 (≈ 0.0223 µg/mL)	3.9 (≈ 1.74 µg/mL)	IC50 [4]: > 256 µM; remaining at 0.5 h [5]: 95.6%; remaining at 0.5 h [6]: 81.9%; remaining at 0.5 h [7]: 68.1%; IC50 [8]: 61.3 µM; IC50 [9]: 10.6 µM; IC50 [10]: > 100 µM; IC50 [11]: 4.9 µM; IC50 [12]: 67.5 µM; half-life [13]: 1540 min; AUC [14]: 31.97 uM.hr/ml; AUC [15]: 175.71 uM.hr/ml; clearance [16]: 0.5 mL/min/kg; bioavailability [17]: > 99.9%; IC50 [18]: 60 µM; Cmax [19]: 5.91 uM/ml
CC(C)C(=O)c1c(Nc2ccc(F)c(F)c2F)[nH]c2c(Cl)cc(Cl)c(Cl)c2c1=O	0.05 (≈ 0.0232 µg/mL)	0.04 (≈ 0.0185 µg/mL)	0.57 (≈ 0.264 µg/mL)	IC50 [4]: 31.2 µM
CC(=O)c1c(Nc2ccc(F)c(F)c2F)[nH]c2c(F)cc(F)cc2c1=O	0.95 (≈ 0.35 µg/mL)	1.11 (≈ 0.409 µg/mL)	6.79 (≈ 2.5 µg/mL)	–
CC(=O)c1c(Nc2ccc(Cl)cc2Cl)[nH]c2c(Cl)ccc(C(F)(F)F)c2c1=O	0.41 (≈ 0.184 µg/mL)	0.44 (≈ 0.198 µg/mL)	15.2 (≈ 6.83 µg/mL)	–
CC(=O)c1c(NCc2ccc(F)cc2)[nH]c2c(F)cc(F)cc2c1=O	> 20	> 20	–	–
CC(=O)c1c(Nc2ccc(Cl)cc2Cl)[nH]c2c(Cl)cc(Cl)c(Cl)c2c1=O	0.27 (≈ 0.122 µg/mL)	0.28 (≈ 0.126 µg/mL)	34.8 (≈ 15.7 µg/mL)	–
CC(C)C(=O)c1c(Nc2ccc(Cl)cc2Cl)[nH]c2c(F)cc(F)cc2c1=O	0.19 (≈ 0.0781 µg/mL)	0.2 (≈ 0.0822 µg/mL)	1.45 (≈ 0.596 µg/mL)	IC50 [4]: 39 µM
CC(C)C(=O)c1c(Nc2ccc(F)c(F)c2F)[nH]c2c(F)cc(F)cc2c1=O	0.2 (≈ 0.0793 µg/mL)	0.18 (≈ 0.0713 µg/mL)	0.71 (≈ 0.281 µg/mL)	IC50 [4]: 63.7 µM; IC50 [8]: 86.1 µM; AUC [14]: 28.3 uM.hr/ml; AUC [15]: 28.9 uM.hr/ml; CL ([16]; iv, 2 mg/kg): 0.07 L/h/kg; bioavailability [17]: > 55.8%; IC50 [18]: > 100 µM; Cmax [19]: 2.32 uM/ml
CC(=O)c1c(N2CCOCC2)[nH]c2c(F)cc(F)cc2c1=O	> 20	> 20	–	–
CC(C)C(=O)c1c(Nc2ccc(F)cc2F)[nH]c2c(F)cc(F)cc2c1=O	1.27 (≈ 0.48 µg/mL)	1.36 (≈ 0.515 µg/mL)	10 (≈ 3.79 µg/mL)	–
CCN(CC)CCCC(C)Nc1[nH]c2c(F)cc(F)cc2c(=O)c1C(C)=O (centres undefined)	> 20	> 20	–	–
CN[C@H](CC(C)C)C(=O)N[C@H]1C(=O)N[C@@H](CC(N)=O)C(=O)N[C@H]2C(=O)N[C@H]3C(=O)N[C@H](C(=O)N[C@H](C(=O)O)c4cc(O)cc(O)c4-c4cc3ccc4O)[C@H](O)c3ccc(c(Cl)c3)Oc3cc2cc(c3O[C@@H]2O[C@H](CO)[C@@H](O)[C@H](O)[C@H]2O[C@H]2C[C@](C)(N)[C@H](O)[C@H](C)O2)Oc2ccc(cc2Cl)[C@H]1O [VANCOMYCIN]	–	1.97 (≈ 2.86 µg/mL)	–	–
COc1ccc(Nc2[nH]c3c(F)cc(F)cc3c(=O)c2C(C)=O)cc1	> 20	> 20	–	–
CC(=O)c1c(NCc2ccc(F)cc2F)[nH]c2c(F)cc(F)cc2c1=O	> 20	> 20	–	–
COc1ccc(CNc2[nH]c3c(F)cc(F)cc3c(=O)c2C(C)=O)cc1	> 20	> 20	–	–
